Measurements: article PMC11335189, “Revealing molecular determinants governing mambalgin-3 pharmacology at acid-sensing ion channel 1 variants” (Cellular and Molecular Life Sciences: CMLS, 2024)
Like-named read-outs stand apart in the source and are kept apart here. Positions of bridges follow the written chain, without caps; N, C: chain ends. No end group written: not given here.

Columns and labels:
[1] = target: T1, rASIC1a (Rattus norvegicus, UniProt P55926); assay: TEVC in Xenopus laevis oocytes expressing rASIC1a; type: cell-based; settings: for inhibition of currents at 300 nM: 300 nM peptide; for increase in IC50 (loss of potency) relative to wild-type Ma-3: peptides applied at pH 7.45, stimulated at pH 6
T1 construct: expressed in transfected cells; host or cells: Xenopus laevis oocytes (cRNA injection)
T1 sequence (P55926 1-526): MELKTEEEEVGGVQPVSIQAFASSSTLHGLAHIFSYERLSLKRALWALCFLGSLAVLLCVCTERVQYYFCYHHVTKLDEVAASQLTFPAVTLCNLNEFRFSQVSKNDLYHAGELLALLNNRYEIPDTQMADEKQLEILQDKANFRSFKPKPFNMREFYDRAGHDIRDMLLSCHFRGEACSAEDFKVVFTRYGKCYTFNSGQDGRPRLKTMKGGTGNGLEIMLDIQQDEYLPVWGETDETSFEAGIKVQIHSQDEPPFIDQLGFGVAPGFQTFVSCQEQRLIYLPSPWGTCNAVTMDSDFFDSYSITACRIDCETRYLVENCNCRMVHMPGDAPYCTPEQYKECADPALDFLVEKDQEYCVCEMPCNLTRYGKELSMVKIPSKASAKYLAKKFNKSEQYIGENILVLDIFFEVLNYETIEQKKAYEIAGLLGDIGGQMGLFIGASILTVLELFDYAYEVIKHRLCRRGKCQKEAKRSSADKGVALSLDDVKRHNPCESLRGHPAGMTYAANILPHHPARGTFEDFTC
Protocol: (§1) Two-electrode voltage-clamp (TEVC) experiments using Xenopus laevis oocytes were conducted as previously described. Briefly, oocytes were surgically removed from anaesthetised female frogs, then treated with collagenase (~ 1 mg/ml, Sigma type I) for 2 h under agitation at room temperature. cRNAs were synthesised using a mMessage mMachine T7 or SP6 transcription kit (Thermo Fisher Scientific Australia Pty Ltd, Scoresby, VIC, Australia) and injected into healthy stage V–VI oocytes at 0.2–20 ng per cell. Different amounts of RNA were used for different wild-type and mutant constructs, as well as to titrate expression levels to record over multiple days and maintaining consistent expression levels. Injected oocytes were incubated at 17 °C for 1–7 days in 50% Leibovitz’s L-15 medium (Gibco, Thermo Fisher Scientific Australia Pty Ltd, Scoresby, VIC, Australia), supplemented with 25 µg/mL gentamicin, 25 µg/mL streptomycin, and 2.5% fetal horse serum. Membrane currents were recorded 2–7 days after cRNA-injection under voltage-clamp at -60 mV (Axon Axoclamp 900 A, Molecular Devices, CA, USA) using two standard glass microelectrodes of 0.5–1 MΩ resistance when filled with 3 M KCl solution. Data were sampled at 2 kHz and filtered at 0.1 kHz using Clampex 10 software (Molecular Devices, CA, USA). A microperfusion system was used to allow fast extracellular solution exchange (bath volume = ~ 30 µL). All experiments were performed at room temperature (18–23 °C) in ND96 (96 mM NaCl, 2 mM KCl, 1.8 mM CaCl2, 2 mM MgCl2, 5 mM HEPES, pH 7.45). In solutions below pH 6.8, HEPES was replaced by MES. All solutions containing peptides contained 0.05% fatty acid free bovine serum albumin to decrease adsorptive losses of peptide to plasticware. For all channels tested, control current magnitudes between 500 and 9000 nA when tested using a conditioning pH of 7.45 and stimulating pH of 6 (except for the chimeras that were stimulated with pH 5) were used for data collection. Before recording any experiments, oocytes were stimulated multiple times with low pH to minimise and stabilise tachyphylaxis/desensitisation, which were then accounted for during analysis. Complete recovery of currents from Ma-3 induced modulation within 3 min of washout at all channels tested allowed for correction for tachyphylaxis/desensitisation during analyses.
(§2) Specific to this work, the standard protocol was for oocytes to be conditioned at pH 7.45 and channels stimulated every 60 s using a 5 s pH 5 or 6 application, unless stated otherwise. For all concentration-response data, peptides were applied for ~ 50 s between each low pH stimulus application. Activation curves were determined by conditioning oocytes at pH 8 (Fig. 2e − g; and Fig. 5a and b) or 7.45 (Fig. 6; and Supplementary Fig. 2d and c) for 55 s and applying low pH stimuli from 7.25 to 5.0 for 5 s. Steady-state desensitisation (SSD) was determined by applying conditioning solutions of pH values from 8 to 6 for 115 s prior to stimulation by a pH drop to 5 for 5 s. Ma-3 was only applied in the conditioning solution for activation and steady-state desensitisation curves in the presence of peptide. Control pH-dependence curves were determined in the absence of any Ma-3. When assessing the effect of Ma-3 on the rASIC1a: ASIC1b chimeras (C92 and C166; and for the comparative wild-type data), the conditioning pH was 7.45 and stimulating pH 5 (Fig. 3b). Specific details of the conditioning and stimulating pH are noted in each figure legend.
(§3) Data were analysed using pCLAMP-Clampfit software (Version 11, Molecular Devices, CA, USA) and GraphPad Prism 9.5 and 10.2.2 (GraphPad Software, San Diego, CA, USA). To obtain the Hill coefficient (nH) and half-maximal response (EC50, IC50, or pH50) the Hill equation was fitted to normalised concentration-response curves by using a non-linear fit to the data of a four-parameter logistic equation (“sigmoidal dose-response” in GraphPad Prism 9.5). […]

[2] = target: T2, hASIC1b (Homo sapiens, UniProt P78348); assay: TEVC in Xenopus laevis oocytes expressing hASIC1b; type: cell-based; settings: for remaining activity at 1 µM: 1 µM peptide, conditioning pH 7.45, mean, n ≥ 5, read-out: I/Icontrol
T2 construct: expressed in transfected cells; host or cells: Xenopus laevis oocytes (cRNA injection)
T2 sequence (P78348 1-562 isoform P78348-3): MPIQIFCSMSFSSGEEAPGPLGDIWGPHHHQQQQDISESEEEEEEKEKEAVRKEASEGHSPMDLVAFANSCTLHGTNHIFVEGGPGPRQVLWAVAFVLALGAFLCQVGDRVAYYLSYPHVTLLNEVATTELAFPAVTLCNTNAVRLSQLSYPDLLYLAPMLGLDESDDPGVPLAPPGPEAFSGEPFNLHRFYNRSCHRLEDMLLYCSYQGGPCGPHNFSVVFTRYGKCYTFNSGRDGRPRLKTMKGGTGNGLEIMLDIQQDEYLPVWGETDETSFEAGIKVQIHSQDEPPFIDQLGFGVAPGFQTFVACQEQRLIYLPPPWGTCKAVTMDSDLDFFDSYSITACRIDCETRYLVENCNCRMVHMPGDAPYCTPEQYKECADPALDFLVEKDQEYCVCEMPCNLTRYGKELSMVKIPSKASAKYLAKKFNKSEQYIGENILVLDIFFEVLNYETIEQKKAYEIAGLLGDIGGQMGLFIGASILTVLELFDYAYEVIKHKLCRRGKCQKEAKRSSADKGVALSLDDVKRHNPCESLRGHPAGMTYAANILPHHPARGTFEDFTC
Protocol: as §1, §2, §3

[3] = conditioning pH 7.45, stimulating pH 6

| Substance | t1/2 of onset of inhibition ([1]; 30 nM Ma-3 (~ 10 times the IC50) applied at pH 7.45 for different durations, single exponential fit, n = 6) | time of Ma-3 application to maximal inhibition ([1]; 30 nM Ma-3 at pH 7.45) | shift of the activation curve towards more acidic values ([1]; 100 nM Ma-3, conditioning pH 8) | slope of activation curve in presence of Ma-3 ([1]; 100 nM Ma-3, conditioning pH 8, mean ± SEM) | alkaline shift in the SSD curve ([1]; 100 nM Ma-3, stimulating pH 5) | slope of SSD curve in presence of Ma-3 ([1]; 100 nM Ma-3, stimulating pH 5, mean ± SEM) | pH50 of activation in presence of Ma-3 ([1]; 100 nM Ma-3 in conditioning solution, conditioning pH 8, Hill fit, mean ± SEM, n = 5–8) | pH50 of steady-state desensitisation (SSD) in presence of Ma-3 ([1]; 100 nM Ma-3 in conditioning solution, stimulating pH 5, Hill fit, mean ± SEM, n = 5–8) | pH50 of activation in presence of Ma-3 ([1]; 100 nM Ma-3 in the pH 8 conditioning solution, Hill fit (Supplementary Table 7), n = 5–6) | inhibition of currents at 300 nM [1, 3] | fold more potent inhibition of rASIC1a than rASIC1b ([1]; IC50 ratio, conditioning pH 7.45, stimulating pH 6) | t1/2 of recovery of currents from inhibition (washout) ([1]; after 30 nM Ma-3, pH 7.45 conditioning, single exponential fit, n = 6) | inhibition at saturating Ma-3 concentrations [1, 3] | pH50 of activation in presence of Ma-3 ([2]; 300 nM Ma-3, conditioning pH 7.45, Hill fit, n = 5–6) | remaining activity at 1 µM ([2]; pH 5 evoked currents) | remaining activity at 1 µM ([2]; pH 6 evoked currents) | difference in potency between pH 5 and pH 6 stimulus conditions ([2]; potentiation at pH 6 vs inhibition at pH 5, conditioning pH 7.45) | increase in IC50 (loss of potency) relative to wild-type Ma-3 [1] |
| --- | --- | --- | --- | --- | --- | --- | --- | --- | --- | --- | --- | --- | --- | --- | --- | --- | --- | --- |
| H-SLKCYQHGKVVTCHRDMKFCYHNIGMPFRNLKLILQGCSSSCSETENNKCCSTDRCNK (disulfide 4-20, 13-38, 42-50, 51-56 (inferred)) [Ma-3, mambalgin-3] | 6.5 s | ≤ 45 s | 0.48 pH units | 1.29 ± 0.67 | 0.08 pH units | 7.09 ± 1.34 | 5.72 ± 0.23 | 7.42 ± 0.04 | 5.60 | strongly inhibit | ~ 10 fold | 21.6 s | completely inhibited | 6.20 | 69% | 161% | ~ 10 fold | – |
| H-SLKCYQHGKVVTCHRDAKFCYHNIGMPFRNLKLILQGCSSSCSETENNKCCSTDRCNK (disulfide 4-20, 13-38, 42-50, 51-56 (inferred)) [M16A] | – | – | – | – | – | – | – | – | – | strongly inhibit | – | – | – | – | 80% | 188% | – | no change |
| H-SLKCYQHGAVVTCHRDMKFCYHNIGMPFRNLKLILQGCSSSCSETENNKCCSTDRCNK (disulfide 4-20, 13-38, 42-50, 51-56 (inferred)) [K8A] | – | – | – | – | – | – | – | – | – | strongly inhibit | – | – | – | – | 75% | 165% | – | ~ 4 fold |
